Assays:
[1] = Metabolite profiling in monkey liver microsomes; assay type: in vitro ADME; parameters: key: +: peak detected; ?: peak observed; ND: not detected; conditions: 50 μM Compound 1, 2 hours
Method: Preliminary identification of putative metabolites was conducted by comparing the retention time of observed metabolites with retention times obtained with chemically synthesized standards using the following HPLC-UV method:
Incubations with liver microsomes, liver cytosol or pig liver esterase were conducted in a final volume of 0.1 mL per incubation time point. Pooled microsomal protein (1.0 mg/mL) suspended in incubation buffer (0.1 M potassium phosphate, pH 7.4) was incubated for 2 hours at 37° C. with 50 μM Compound 1 from a stock solution in DMSO (final DMSO concentration was 0.1%); the microsomal reaction was initiated by the addition of an NADPH regenerating system (1.3 mM NADP^+, 3.3 mM glucose-6-phosphate, 0.4 U/ml glucose-6-phosphate dehydrogenase, and 3.3 mM MgCl2, final concentrations). Incubations with no NADPH or no protein served as controls. Reactions were terminated by the addition of 0.1 mL of stop solution (acetonitrile). The samples were vortex-mixed for 30 sec and then centrifuged at 10,000×g for 10 min. The supernatant was dried using a Labconco CentriVap concentrator and the dry residue reconstituted in water, transferred to an HPLC glass vial and analyzed by HPLC-UV method 2 (described above).
Results: Preliminary identification was accomplished by comparing LC elution of metabolites with that of available synthetic standards of putative metabolites (FIG. 2). Metabolites U1, U2 and U3 were characterized based on the retention times.

[2] = Excretion of administered dose in rat urine and feces; assay type: in vivo, male Sprague-Dawley rats; conditions: for Total excretion (urine + feces), % of the administered dose: rat
Method: Isotopically diluted [^14C]-Compound 1 was administered intravenously to male Sprague-Dawley rats at 50 mg/kg or by oral gavage at 100 mg/kg.
(§1) Percent of the administered dose (% AD) for parent drug and each metabolite at each collection period=(% of the total radioactivity in the sample attributed to the metabolite)*(total radioactivity expressed as % of the administered dose, recovered during the corresponding collection period).
The urine and feces of each animal were analyzed for radiolabel content.

[3] = Metabolite profile in rat urine; assay type: in vivo, male Sprague-Dawley rats; conditions: for Percent of Dose, Urine 0-24 h: after [14C]Compound 1; for % AD, estimated: from single animal HPLC distribution and mean % AD
Method: Pooled urine samples were prepared for Groups 1C and 2C by mixing a fixed percent of the total volume for all four animals from the selected time points. For Group 1C, samples of the 1-, 2-, 6-, and 24-h collection intervals were pooled. For Group 2C, a pool of samples from all four animals was prepared for the 24 h collection intervals only. For 1-, 2-, and 6 h collection intervals, a urine sample of a single animal of Group 2A or 2B was used for analysis. All samples were brought to room temperature and vortexed briefly. The samples were diluted as necessary (2- to 20-fold) with appropriate aqueous mobile phase for the selected HPLC method. The pooled and diluted samples from the 24 h collection interval were centrifuged at 2040×g for 10 minutes. All other samples were analyzed without centrifugation. HPLC method 1 was used for HPLC profiling. Selected samples were analyzed by HPLC method 2 for comparison with the metabolite profile generated by microsomal and hepatocyte incubations (Examples 14 and 15) and with the metabolite profile of liver extracts.
as §1
HPLC analyses of pooled urine samples of all time points were conducted for Group 1C. Metabolites R1, R2, R3, R4, R5, R6, R7 and R8 were characterized based on retention time.
For the PO dose group, a pooled urine sample from the 24-h collection time was analyzed. For 1-, 2-, and 6-h collection times, the majority of the samples had been used for radioanalysis. The remaining samples were insufficient for proportional pooling. Therefore, single animal samples of […] groups were used for HPLC profiling. Metabolites R^1, R^2, R^3, R^4, R^5, R^6, R^7 and R^8 were characterized based on retention time.
Table 50 contains data from single animal samples and pooled samples. To estimate overall distribution of urinary metabolites, it was assumed that the profile from a single animal is reflective of the overall average metabolite profile. Therefore, HPLC distribution data from single animals was used to calculate the percentage of administered dose excreted as various metabolites during the 1-, 2-, and 6-h collection intervals. Metabolites R1, R2, R3, R4, R5, R6, R7 and R8 were characterized based on retention time.

[4] = Excretion of administered dose in rat urine and feces; assay type: in vivo, male Sprague-Dawley rats; conditions: IV; 24 h after [14C]Compound 1
[5] = PO dose urine, 1 h collection, single animal (#15, Group 2A)
[6] = PO dose urine, 2 h collection, single animal (#20, Group 2B)
[7] = PO dose urine, 6 h collection, single animal (#20, Group 2B)
[8] = estimated profile table, group 2C (PO dose) urine, 24 h
[9] = group 1C (IV dose) pooled urine, 1 h collection
[10] = group 1C (IV dose) pooled urine, 2 h collection
[11] = group 1C (IV dose) pooled urine, 6 h collection
[12] = group 1C (IV dose) pooled urine, 24 h collection
[13] = group 2C (PO dose) pooled urine, 24 h collection

In vitro metabolite profile in microsomes following incubation with Compound 1 (peak detection) [1]: + | Total excretion (% AD), total (urine + feces) ([2]; IV (1C)): 34.0 % AD | Percent of Dose, Total (urine, feces and liver) ([2]; Oral, 24 h after [14C]Compound 1): 28.3% of Dose | Total excretion (% AD), total (urine + feces) ([2]; PO (2C), urine data estimated): 28.2 % AD | Total excretion (urine + feces), % of the administered dose ([2]; IV dose): 34.0% | Total excretion (urine + feces), % of the administered dose ([2]; PO dose): 28.2% | Total excretion (% AD), urine ([3]; IV (1C)): 18.0 % AD | Percent of Dose, Urine 0-24 h ([3]; IV): 18.0% of Dose | Percent of Dose, Urine 0-24 h ([3]; Oral): 2.56% of Dose | Total excretion (% AD), urine ([3]; PO (2C), urine data estimated): 2.56 % AD | % AD (percent of administered dose) [3, 5]: 0.004 % AD | % HPLC (percent of HPLC peak area in the sample extract) [3, 5]: 5.33% | % AD (percent of administered dose) [3, 6]: 0.06 % AD | % HPLC (percent of HPLC peak area in the sample extract) [3, 6]: 56.2% | % AD (percent of administered dose) [3, 7]: 0.24 % AD | % HPLC (percent of HPLC peak area in the sample extract) [3, 7]: 86.18% | % AD [3, 8]: 2.14 % AD | % HPLC (percent of HPLC peak area in the sample extract) [3, 8]: 92.1% | % of total urinary excretion, estimated ([3]; estimated profile, group 2C (PO dose) urine): 90.4% | % AD, estimated ([3]; estimated profile, group 2C (PO dose) urine, 1 h): 0.001 % AD | % HPLC (percent of HPLC peak area in the sample extract) ([3]; estimated profile, group 2C (PO dose) urine, 1 h, single animal % HPLC distribution): 5.33% | % AD, estimated ([3]; estimated profile, group 2C (PO dose) urine, 2 h): 0.02 % AD | % HPLC (percent of HPLC peak area in the sample extract) ([3]; estimated profile, group 2C (PO dose) urine, 2 h, single animal % HPLC distribution): 56.2% | % AD, estimated ([3]; estimated profile, group 2C (PO dose) urine, 6 h): 0.40 % AD | % HPLC (percent of HPLC peak area in the sample extract) ([3]; estimated profile, group 2C (PO dose) urine, 6 h, single animal % HPLC distribution): 86.18% | Total % AD, estimated ([3]; estimated profile, group 2C (PO dose) urine, total of all collections): 2.56 % AD | % AD (percent of administered dose) [3, 9]: 0.48 % AD | % HPLC (percent of HPLC peak area in the sample extract) [3, 9]: 2.12% | % AD (percent of administered dose) [3, 10]: 1.79 % AD | % HPLC (percent of HPLC peak area in the sample extract) [3, 10]: 35.1% | % AD (percent of administered dose) [3, 11]: 1.35 % AD | % HPLC (percent of HPLC peak area in the sample extract) [3, 11]: 57.7% | % AD (percent of administered dose) [3, 12]: 14.4 % AD | % HPLC (percent of HPLC peak area in the sample extract) [3, 12]: 86.7% | % of total urinary excretion ([3]; group 1C (IV dose) urine): 38.4% | Total % AD ([3]; group 1C (IV dose) urine, total of all collections): 18.0 % AD | % AD (percent of administered dose) [3, 13]: 2.14 % AD | % HPLC (percent of HPLC peak area in the sample extract) [3, 13]: 92.1% | % of the total urinary excretion ([3]; rat urine, IV dose 50 mg/kg): 38.4% | urinary component, % of the administered dose (% AD) ([3]; rat urine, IV dose 50 mg/kg, 0-24 h, 50 mg/kg): 18 % AD | % of the total urinary excretion ([3]; rat urine, PO dose 100 mg/kg): 90.4% | urinary component, estimated % of the administered dose (% AD) ([3]; rat urine, PO dose 100 mg/kg, 0-24 h): 2.6 % AD | Percent of Dose, Total (urine, feces and liver) [4]: 34.5% of Dose
SMILES: C[C@@]1(O)[C@H](O)[C@@H](CO)O[C@H]1n1cnc2c(=O)[nH]c(N)nc21 [2′-C-methyl guanosine, 9-(2-C-methyl-β-D-ribofuranosyl)guanine, reference compound]
